Source: US5622983A, “N-substituted cycloalkyl and polycycloalkyl α-substituted Trp-Phe- and phenethylamine derivatives” (Warner-Lambert Company, priority 1995, dated 1997)

Columns and labels:
[1] = Palatable Diet Feeding assay; format: in vivo, rat; settings: dose producing 50% of the maximum effect possible (zero food intake)
Experimental: In the Palatable Diet Feeding assay, adult male Hooded Lister rats weighing between 200-400 g were housed individually and trained to eat a palatable diet. This diet consisted of Nestles sweetened condensed milk, powdered rat food and rat water which when blended together set to a firm consistency. […] The intake of palatable diet was measured by weighing the food container before and after the 30-minute access period (limits of accuracy 0.1 g). Care was taken to collect and correct for any spillage of the diet. Rats had free access to pellet food and water except during the 30-minute test period.
After the training period, dose-response curves were constructed for CCK8 and several representative compounds of the present invention (n=8-10 rats per dose level).

Rat Elevated X-Maze Test = format: in vivo; settings: 0.01 to 1.0 mg/kg s.c.
Experimental: The dose was equivalent to 0.1 mg/kg p.o. compound 20.

LoVo cells = test: In vitro proliferation of LoVo cells (tetrazolium salt colorimetric assay); format: cell-based, human
Experimental: LoVo was obtained from the American Tissue Type Collection (ATCC CCL 229). Five×10^3 to 1×10^4 LoVo cells were cultured in 200 μL of serum containing RPMI in 96-well flat-bottomed titre plates for 24 hours. […] Cell proliferation was measured indirectly using a tetrazolium salt colorimetric assay for cellular respiration (Merlin JL, Azzi S, Lignon D, Ramacci C, Zeghari N, Guillemin F. MTT assays allow quick and reliable measurement of the response of human tumor cell to photodynamic therapy. Eur. J. Cancer, 28(8/9):1452-1458 (1992)).

LoVo (xenograft) = test: LoVo xenograft growth in nude mice; format: in vivo
Experimental: One×10^6 LoVo cells in 0.1 mL serum-free RPMI were injected subcutaneously into the backs of 27 male nude mice. Xenografts were grown for 10 days prior to treatment, then randomly allocated to receive twice daily gavage with either 0.1 mL saline alone or containing 10 mg/kg/day of compound 20 for 20 days. Bidirectional tumor diameter was measured using vernier calipers and converted to volumes […]. The animals were sacrificed on Day 30. The protocol was approved by the UNSW Ethics committee.

[2] = Aspirin-induced gastric damage; format: in vivo, rat; settings: 10 mg/kg PO
Experimental: Aspirin-induced gastric damage was assessed in groups of 10 rats each.
All animals were fasted for 24 hours before and throughout the experiment. Drug or vehicle was given 10 minutes before an oral dose of 1 mL of a 45-mg/mL suspension of aspirin in 0.5% carboxymethylcellulose (CMC).
The animals were sacrificed five hours after aspirin administration and the stomachs removed and opened for examination.

**Q.** For `CC(Cc1c[nH]c2ccccc12)(NC(=O)OC1C2CC3CC(C2)CC1C3)C(=O)NCC(NC(=O)CCC(=O)O)c1ccccc1` (stereo not drawn) [Example 20, [R-(R*,R*)-4-[[2-[[3-(1H-indol-3-yl)-2-methyl-1-oxo-2-[[(tricyclo[3.3.1.1^3,7]dec-2-yloxy)carbonyl]amino]propyl]amino]-1-phenylethyl]amino]-4-oxobutanoic acid], which “Inhibition of Feeding on Rat Palatable Diet Assay I.P. MPE50” value [1] is on record?
**A.** Its value is 17.4 mg/kg.

**Q.** And the “anxiolytic effect, time spent in the open arm end section (FIG. 14)” value (Rat Elevated X-Maze Test)?
**A.** Its value is “anxiolytic effects”.

**Q.** What about the “cellular proliferation expressed as a percentage of control” value (LoVo cells; 10^-1 M, 24 hours) of the same compound?
**A.** Its value is 58.93±7.30%.

**Q.** And the “cellular proliferation expressed as a percentage of control” value (LoVo cells; 10^-1 M, 48 hours)?
**A.** The value was 82.60±2.33%.

**Q.** And the “cellular proliferation expressed as a percentage of control” value (LoVo cells; 10^-1 M, 72 hours)?
**A.** Its value is 80.53±3.06%.

**Q.** What about the “cellular proliferation expressed as a percentage of control” value (LoVo cells; 10^-7 M, 24 hours) of the same compound?
**A.** The value was 81.60±6.62%.

**Q.** And the “cellular proliferation expressed as a percentage of control” value (LoVo cells; 10^-7 M, 48 hours)?
**A.** Its value is 95.33±2.50%.

**Q.** And the “cellular proliferation expressed as a percentage of control” value (LoVo cells; 10^-7 M, 72 hours)?
**A.** Its value is 84.71±6.97%.

**Q.** What about the “cellular proliferation expressed as a percentage of control” value (LoVo cells; 10^-8 M, 24 hours) of the same compound?
**A.** Its value is 70.13±7.15%.

**Q.** And the “cellular proliferation expressed as a percentage of control” value (LoVo cells; 10^-8 M, 48 hours)?
**A.** Its value is 93.20±4.04%.

**Q.** What about the “cellular proliferation expressed as a percentage of control” value (LoVo cells; 10^-8 M, 72 hours) of the same compound?
**A.** Its value is 85.93±4.19%.

**Q.** And the “cellular proliferation expressed as a percentage of control” value (LoVo cells; 10^-9 M, 24 hours)?
**A.** Its value is 62.47±7.20%.

**Q.** What about the “cellular proliferation expressed as a percentage of control” value (LoVo cells; 10^-9 M, 48 hours) of the same compound?
**A.** The value was 82.73±2.97%.

**Q.** What about the “cellular proliferation expressed as a percentage of control” value (LoVo cells; 10^-9 M, 72 hours) of the same compound?
**A.** Its value is 79.07±3.18%.

**Q.** What about the “cellular proliferation expressed as a percentage of control” value (LoVo cells; 10^-11 M, 24 hours, LoVo, serum-free RPMI) of the same compound?
**A.** Its value is 66.47±6.72%.

**Q.** And the “cellular proliferation expressed as a percentage of control” value (LoVo cells; 10^-11 M, 48 hours)?
**A.** Its value is 80.47±2.64%.

**Q.** What about the “cellular proliferation expressed as a percentage of control” value (LoVo cells; 10^-11 M, 72 hours) of the same compound?
**A.** The value was 78.87±3.25%.

**Q.** And the “concentrations with significant inhibition” value (LoVo cells; after 24 and 72 hours (ANOVA))?
**A.** The value was 10^-11 to 10^-8 M.

**Q.** What about the “concentrations with significant inhibition” value (LoVo cells; at 48 hours (ANOVA)) of the same compound?
**A.** Its value is 10^-11 to 10^-9 M.

**Q.** And the “time of maximum inhibition” value (LoVo cells; cultures not refed with compound)?
**A.** The value was 24 h.

**Q.** And the “reduction of tumor volume at Day 30 compared to control” value (LoVo (xenograft); 10 mg/kg/day by gavage for 20 days)?
**A.** Its value is 53%.

**Q.** What about the “tumor growth overall, mean tumor volume (FIG. 17)” value (LoVo (xenograft); 10 mg/kg/day orally, 20 days, p <0.05, ANOVA) of the same compound?
**A.** The value was “significantly inhibited tumor growth overall”.

**Q.** What about the “day from which tumor size diverged significantly between control and treated animals” value (LoVo (xenograft); 10 mg/kg/day, p <0.05, ANOVA) of the same compound?
**A.** Its value is 21 days.

**Q.** What about the “reduction in ulcer formation” value [2] of the same compound?
**A.** The value was 48%.

**Q.** And the ulcer score ([2]; ±SD, saline control 12.1±6.85)?
**A.** Its ulcer score is 6.3±4.14.
